Measured values reported in patent US20210024542A1 (Torcept Therapeutics, Inc., priority 2018, published 2021).
pEC50, pIC50: −log10 of the molar value. Read-outs that look alike come from different tables or passages of the source.

Experiments:
[1] = test system: CHP-212; experiment: OncoPanel cell proliferation assay, CHP-212; conditions: for Relative cell count (%) Mean: CHP-212
Procedure: (§6) Cells were seeded into 384-well plates and incubated in a humidified atmosphere of 5% CO2 at 37° C. Compounds were added the day following cell seeding. At the same time, a time zero untreated cell plate was generated. After a 3-day incubation period, cells were fixed and stained to allow fluorescence imaging of nuclei. Compounds (1 mM stock solutions) were serially diluted in half-log steps from the highest test concentration (1 micromol), and assayed over 10 concentrations with a maximum assay concentration of 0.1% DMSO. Automated fluorescence microscopy was carried out using a Molecular Devices ImageXpress Micro XL high-content imager, and images were collected with a 4× objective. 16-bit TIFF images were acquired and analyzed with MetaXpress 5.1.0.41 software.
(§7) GI50 is the concentration needed to reduce the observed growth by half (midway between the curve maximum and the time zero value). […] In rare instances, values <0 or >10 may be observed. […] Curve-fitting, calculations, and report generation was performed using a custom data reduction engine and MathIQ based software (AIM).

[2] = test system: G-402; experiment: OncoPanel cell proliferation assay, G-402; type: cell-based, human; conditions: for Relative cell count (%) Mean: G-402
Procedure: (§1) Cells were grown in RPMI 1640, 10% FBS, 2 mM L-alanyl-L-glutamine, 1 mM Na pyruvate, or a special medium. Cells were seeded into 384-well plates and incubated in a humidified atmosphere of 5% CO2 at 37° C. Compounds were added the day following cell seeding. At the same time, a time zero untreated cell plate was generated. After a 3-day incubation period, cells were fixed and stained to allow fluorescence imaging of nuclei. Compounds (1 mM stock solutions) were serially diluted in half-log steps from the highest test concentration ([…]), and assayed over 10 concentrations with a maximum assay concentration of 0.1% DMSO. Automated fluorescence microscopy was carried out using a Molecular Devices ImageXpress Micro XL high-content imager, and images were collected with a 4× objective. 16-bit TIFF images were acquired and analyzed with MetaXpress 5.1.0.41 software.
(§2) Cell proliferation was measured by the fluorescence intensity of an incorporated nuclear dye. The output is referred to as the relative cell count, where the measured nuclear intensity is transformed to percent of control (POC) using the following formula: […]
(§3) Cellular response parameters were calculated using nonlinear regression to a sigmoidal single-site dose response model:
(§4) Where y is a response measured at concentration x, A and B are the lower and upper limits of the response, C is the concentration at the response midpoint (EC50), and D is the Hill Slope (Ref. 1).
(§5) EC50 is the test compound concentration at the curve inflection point or half the effective response (parameter C of the fitted curve solution). GI50 is the concentration needed to reduce the observed growth by half (midway between the curve maximum and the time zero value). “Cell Count Activity Area” is an estimate of the integrated area above the curve (Barretina, et al. The Cancer Cell Line Encyclopedia enables predictive modelling of anticancer drug sensitivity. Nature 483: 603-607). […] In rare instances, values <0 or >10 may be observed. […] Curve-fitting, calculations, and report generation was performed using a custom data reduction engine and MathIQ based software (AIM).

[3] = test system: U-138MG; experiment: OncoPanel cell proliferation assay, U-138MG; type: cell-based, human
Procedure: as §1, §2, §3, §4, §5

[4] = test system: Hs 852.T; experiment: OncoPanel cell proliferation assay, Hs 852.T; type: cell-based, human
Procedure: as §1, §2, §3, §4, §5

[5] = test system: RL95-2; experiment: OncoPanel cell proliferation assay, RL95-2; type: cell-based, human; conditions: for Relative cell count (%) Mean: RL95-2
Procedure: as §1, §2, §3, §4, §5

[6] = test system: SK-UT-1; experiment: OncoPanel cell proliferation assay, SK-UT-1; conditions: for Relative cell count (%) Mean: SK-UT-1
Procedure: as §6, §7

[7] = test system: A431; experiment: OncoPanel cell proliferation assay, A431; type: cell-based, human; conditions: for Relative cell count (%) Mean: A431
Procedure: as §1, §2, §3, §4, §5

CO[C@H]1C[C@@H]2CC[C@@H](C)[C@@](O)(O2)C(=O)C(=O)N2CCCC[C@H]2C(=O)O[C@H]([C@H](C)C[C@@H]2C[C@@H]3C[C@H]2C[C@H]3O)CC(=O)[C@H](C)/C=C(\C)[C@@H](O)[C@@H](OC)C(=O)[C@H](C)C[C@H](C)/C=C/C=C/C=C/1C [Formula I, 37R-hydroxynorbornylrapamycin]
Relative cell count (%) Mean ([1]; 3.17E−03 microM): 55.3% | Relative cell count (%) Mean ([1]; 3.18E−04 microM): 63.3% | Relative cell count (%) Mean ([1]; 3.18E−05 microM): 86.7% | pEC50 ([1]; Homo sapiens, CHP-212, 72 h, read-out: Cell Count EC50): 10.04 | GI50 ([1]; Homo sapiens, CHP-212, 72 h, read-out: Cell Count GI50): 0.125 nM | pIC50 ([1]; Homo sapiens, CHP-212, 72 h, read-out: Cell Count IC50): 7.71 | Cell Count Activity Area ([2]; G-402, scale 0-10): 4.95 | Relative cell count (%) Mean ([2]; 1.00E+00 microM): 31.5% | Relative cell count (%) Mean ([2]; 1.00E−01 microM): 37.2% | Relative cell count (%) Mean ([2]; 1.00E−02 microM): 41.4% | Relative cell count (%) Mean ([2]; 1.00E−03 microM): 49.2% | Relative cell count (%) Mean ([2]; 1.01E−04 microM): 70.9% | Relative cell count (%) Mean ([2]; 3.16E−01 microM): 34.9% | Relative cell count (%) Mean ([2]; 3.17E−02 microM): 46.6% | Relative cell count (%) Mean ([2]; 3.17E−03 microM): 48.8% | Relative cell count (%) Mean ([2]; 3.18E−04 microM): 54.9% | Relative cell count (%) Mean ([2]; 3.18E−05 microM): 89.9% | pEC50 ([2]; Homo sapiens, 72 h, G-402, 3-day incubation, read-out: Cell Count EC50): 9.88 | GI50 ([2]; Homo sapiens, 72 h, G-402, 3-day incubation, read-out: Cell Count GI50): 0.332 nM | pIC50 ([2]; Homo sapiens, 72 h, G-402, 3-day incubation, read-out: Cell Count IC50): 9.02 | pEC50 ([3]; Homo sapiens, U138-MG, 72 h, U-138MG, 3-day incubation, read-out: Cell Count EC50): 10.01 | GI50 ([3]; Homo sapiens, U138-MG, 72 h, U-138MG, 3-day incubation, read-out: Cell Count GI50): 0.54 nM | pIC50 ([3]; Homo sapiens, U138-MG, 72 h, U-138MG, 3-day incubation, read-out: Cell Count IC50): < 6.00 | pEC50 ([3]; Homo sapiens, U138-MG, Table 4 summary, U-138 MG, Glioblastoma, read-out: EC50): 10.01 | Cell Count Activity Area ([3]; U-138MG, scale 0-10): 3.00 | Relative cell count (%) Mean ([3]; U-138MG, 1.00E+00 microM): 62.8% | Relative cell count (%) Mean ([3]; U-138MG, 1.00E−01 microM): 66.3% | Relative cell count (%) Mean ([3]; U-138MG, 1.00E−02 microM): 71.3% | Relative cell count (%) Mean ([3]; U-138MG, 1.00E−03 microM): 70.6% | Relative cell count (%) Mean ([3]; U-138MG, 1.01E−04 microM): 82.1% | Relative cell count (%) Mean ([3]; U-138MG, 3.16E−01 microM): 64.5% | Relative cell count (%) Mean ([3]; U-138MG, 3.17E−02 microM): 66.8% | Relative cell count (%) Mean ([3]; U-138MG, 3.17E−03 microM): 70.9% | Relative cell count (%) Mean ([3]; U-138MG, 3.18E−04 microM): 75.7% | Relative cell count (%) Mean ([3]; U-138MG, 3.18E−05 microM): 98.2% | Relative cell count (%) Mean ([4]; 1.00E+00 microM): 67.7% | Relative cell count (%) Mean ([4]; 1.00E−01 microM): 82.5% | Relative cell count (%) Mean ([4]; 1.00E−02 microM): 92.9% | Relative cell count (%) Mean ([4]; 1.00E−03 microM): 96.5% | Relative cell count (%) Mean ([4]; 1.01E−04 microM): 106.1% | Relative cell count (%) Mean ([4]; 3.16E−01 microM): 78.0% | Relative cell count (%) Mean ([4]; 3.17E−02 microM): 87.7% | Relative cell count (%) Mean ([4]; 3.17E−03 microM): 100.5% | Relative cell count (%) Mean ([4]; 3.18E−04 microM): 105.1% | Relative cell count (%) Mean ([4]; 3.18E−05 microM): 99.0% | pEC50 ([4]; Homo sapiens, 72 h, 3-day incubation, read-out: Cell Count EC50): 6.47 | GI50 ([4]; Homo sapiens, 72 h, 3-day incubation, read-out: Cell Count GI50): 803 nM | pIC50 ([4]; Homo sapiens, 72 h, 3-day incubation, read-out: Cell Count IC50): < 6.00 | Cell Count Activity Area ([4]; scale 0-10): 1.22 | pEC50 ([5]; Homo sapiens, 72 h, RL95-2, 3-day incubation, read-out: Cell Count EC50): 9.82 | GI50 ([5]; Homo sapiens, 72 h, RL95-2, 3-day incubation, read-out: Cell Count GI50): 0.22 nM | pIC50 ([5]; Homo sapiens, 72 h, RL95-2, 3-day incubation, read-out: Cell Count IC50): 7.96 | Cell Count Activity Area ([5]; RL95-2, scale 0-10): 4.12 | Relative cell count (%) Mean ([5]; 1.00E+00 microM): 47.2% | Relative cell count (%) Mean ([5]; 1.00E−01 microM): 50.6% | Relative cell count (%) Mean ([5]; 1.00E−02 microM): 52.2% | Relative cell count (%) Mean ([5]; 1.00E−03 microM): 59.5% | Relative cell count (%) Mean ([5]; 1.01E−04 microM): 78.3% | Relative cell count (%) Mean ([5]; 3.16E−01 microM): 45.6% | Relative cell count (%) Mean ([5]; 3.17E−02 microM): 48.5% | Relative cell count (%) Mean ([5]; 3.17E−03 microM): 52.9% | Relative cell count (%) Mean ([5]; 3.18E−04 microM): 64.0% | Relative cell count (%) Mean ([5]; 3.18E−05 microM): 89.3% | pEC50 ([6]; Homo sapiens, SK-UT-1, 72 h, read-out: Cell Count EC50): 9.55 | GI50 ([6]; Homo sapiens, SK-UT-1, 72 h, read-out: Cell Count GI50): 2.01 nM | pIC50 ([6]; Homo sapiens, SK-UT-1, 72 h, read-out: Cell Count IC50): 7.93 | Cell Count Activity Area ([6]; SK-UT-1, scale 0-10): 3.95 | Relative cell count (%) Mean ([6]; 1.00E+00 microM): 50.0% | Relative cell count (%) Mean ([6]; 1.00E−01 microM): 57.6% | Relative cell count (%) Mean ([6]; 1.00E−02 microM): 52.2% | Relative cell count (%) Mean ([6]; 1.00E−03 microM): 72.8% | Relative cell count (%) Mean ([6]; 1.01E−04 microM): 94.8% | Relative cell count (%) Mean ([6]; 3.16E−01 microM): 48.7% | Relative cell count (%) Mean ([6]; 3.17E−02 microM): 53.1% | Relative cell count (%) Mean ([6]; 3.17E−03 microM): 57.1% | Relative cell count (%) Mean ([6]; 3.18E−04 microM): 72.6% | Relative cell count (%) Mean ([6]; 3.18E−05 microM): 98.4% | Cell Count Activity Area ([7]; A431, scale 0-10): 1.96 | Relative cell count (%) Mean ([7]; 1.00E+00 microM): 64.2% | Relative cell count (%) Mean ([7]; 1.00E−01 microM): 72.8% | Relative cell count (%) Mean ([7]; 1.00E−02 microM): 84.2% | Relative cell count (%) Mean ([7]; 1.00E−03 microM): 93.5% | Relative cell count (%) Mean ([7]; 1.01E−04 microM): 101.0% | Relative cell count (%) Mean ([7]; 3.16E−01 microM): 66.5% | Relative cell count (%) Mean ([7]; 3.17E−02 microM): 78.2% | Relative cell count (%) Mean ([7]; 3.17E−03 microM): 84.4% | Relative cell count (%) Mean ([7]; 3.18E−04 microM): 91.9% | Relative cell count (%) Mean ([7]; 3.18E−05 microM): 104.6% | pEC50 ([7]; Homo sapiens, A-431, 72 h, A431, 3-day incubation, read-out: Cell Count EC50): 7.84 | GI50 ([7]; Homo sapiens, A-431, 72 h, A431, 3-day incubation, read-out: Cell Count GI50): > 1000 nM | pIC50 ([7]; Homo sapiens, A-431, 72 h, A431, 3-day incubation, read-out: Cell Count IC50): < 6.00 | pEC50 ([7]; Homo sapiens, A-431, Table 4 summary, A431, Skin, Head/Neck, read-out: EC50): 7.85
